Test [1] concerns Escherichia coli ATCC 25922. Type of test: cell-based. To be noted: for Antibacterial activity over the tested concentrations: 0.5, 1, 2.5 and 5 μM peptide, Fig. 2b; for Antibacterial activity over the tested concentrations / Killing activity among tested HDPs at less than 5 μM: 2 h; for Antibacterial activity over the tested concentrations / Antibacterial (lytic) activity against E.coli at 5 μM: 37 °C; for Efficiency in reducing E. coli cell viability and damaging cell membranes (comparison among the CATHs): discussion summary of the viability and membrane damage data; for Relative antibacterial effect among all tested chicken HDPs / Killing activity among tested HDPs at less than 5 μM: E. coli; for Relative antibacterial effect among all tested chicken HDPs: under test conditions (0.5-5 μM, 2 h); for Bacteria killed at 0.5 μM: ATCC 25922, 2 h; for Antibacterial (lytic) activity against E.coli at 5 μM: 5 μM peptide, 6 × 10^6 CFU/ml E. coli ATCC 25922, 2 h, luminescence, Fig. 2a; for Killing activity among tested HDPs at less than 5 μM: less than 5 μM peptide. Here is the method:
Gram-negative bacteria, Escherichia coli ATCC 25922, were purchased from Korean Collection for Type Culture and tested against each peptide. Cell viability analysis was carried out as previously reported. Briefly, 6 × 10^6 colony–forming units (CFU)/ml bacteria suspensions (90 μl) were placed into 96 well plates, followed by the addition of 10 μl of serial diluted peptide (final 0, 0.5, 1, 2.5, 5 μM) in triplicate. After 2 h incubation at 37 °C, equal volume of BacTiter-Glo™ Reagent (Promega) was added, and incubated for 5 min after which luminescence was measured with GloMax-Multi Detection System (Promega).
E. coli (6 × 10^6) were incubated with indicated amounts of peptide for 2 h and cell viability was compared to untreated cells. […] Each bar represents the mean ± S.D. value of at least three independent experiments. Non-treated cell considered as 100 % cell viability and peptides treated cell viability was compared and calculated in percentile. *** indicate p ≤ 0.001, ** indicate p ≤ 0.01 and * indicate p ≤ 0.05

The next test has as its system E. coli. The experiment in a line: Detection of damaged E. coli membranes, LIVE/DEAD BacLight staining, confocal laser scanning microscopy. The conditions noted are these: 5 μM peptide, 6.5 × 10^6 CFU E. coli, 10 mM phosphate buffer pH 7.0, 37 °C, 2 h. The test is classed as cell-based, Escherichia coli. As for the experimental part: Fig. 3 Escherichia coli viability and membrane damage following treatment with cathelicidins. Membrane damage in E. coli treated with each synthetic cathelicidin peptide (5 μM) was detected with a LIVE/DEAD BacLight Bacterial Viability Kit. Green fluorescence indicates live bacteria with intact membranes; red fluorescence indicates dead bacteria with damaged membranes.

The next test deals with E.coli. The conditions noted are these: previous report; cited from earlier work. From the text: Even though many tested chicken HDPs show varying efficiencies against pathogens, the majority kill bacteria at low concentration. […] These four peptides have very low net charge from 0.1 to 1.8. AvBD4 has 24 % hydrophobicity with 5.8 net charge and can kill bacteria very well compared to AvBD5, -8 and -13 that have the same hydrophobicity but lower cationicity of 0.1 to […].

Where two headings read alike, the source gives them in different places. Residues, ends and D or L forms follow the SMILES beside them. No end group written: not given here.

Regarding “TATQCRIRGGFCRVGSCRFPHIAIGKCATFISCCGR [AvBD3, synthetic linear peptide corresponding to chicken avian β-defensin 3]”, the “Antibacterial activity over the tested concentrations” value in test [1] was “kill effectively over all tested concentrations”.

For “PIRNWWIRIWEWLNGIRKRLRQRSPFYVRGHLNVTSTPQP [CATB1]”, in test [1], the “Efficiency in reducing E. coli cell viability and damaging cell membranes (comparison among the CATHs)” value is “weak antibacterial activity compared to others”. The “E. coli membrane damage (red fluorescence, LIVE/DEAD BacLight)” value with E. coli is “greater with CATH2 or CATH3 than with CATH1 or CATHB1”.

With `CSCC[C@H](NC(=O)[C@H](Cc1c[nH]cn1)NC(=O)[C@H](Cc1ccc(O)cc1)NC(=O)[C@@H](N)CCCNC(=N)N)C(=O)N[C@@H](CCC(N)=O)C(=O)N[C@@H](CS)C(=O)NCC(=O)N[C@@H](Cc1ccc(O)cc1)C(=O)N[C@@H](CCCNC(=N)N)C(=O)NCC(=O)N[C@H](C(=O)N[C@@H](Cc1ccccc1)C(=O)N[C@@H](CS)C(=O)N[C@H](C(=O)N1CCC[C@H]1C(=O)NCC(=O)N[C@@H](CCCCN)C(=O)N[C@@H](CS)C(=O)N1CCC[C@H]1C(=O)N[C@@H](Cc1ccc(O)cc1)C(=O)NCC(=O)N[C@@H](CC(N)=O)C(=O)N[C@@H](C)C(=O)N[C@@H](Cc1ccc(O)cc1)C(=O)N[C@@H](CC(C)C)C(=O)NCC(=O)N[C@@H](CC(C)C)C(=O)N[C@@H](CS)C(=O)N[C@@H](CCCNC(=N)N)C(=O)N1CCC[C@H]1C(=O)N[C@@H](CCCCN)C(=O)N[C@@H](Cc1ccc(O)cc1)C(=O)N[C@@H](CO)C(=O)N[C@@H](CS)C(=O)N[C@@H](CS)C(=O)N[C@@H](CCCNC(=N)N)C(=O)N[C@@H](Cc1c[nH]c2ccccc12)C(=O)O)[C@@H](C)O)[C@@H](C)O` [AvBD4] (H-RYHMQCGYRGTFCTPGKCPYGNAYLGLCRPKYSCCRW-OH; N-terminus and C-terminus assumed), the “Antibacterial activity over the tested concentrations” value in test [1] (listed as BD4) is listed as “strongest activity among the three”. The figures for the “Relative antibacterial effect among all tested chicken HDPs” value in test [1] and in test [1] (listed as β-defensin4) were “strongest antibacterial effect among all tested chicken HDPs” and “strongest antibacterial activity among all tested chicken HDPs”, respectively.

“PVLVQRGRFGRFLRKIRRFRPKVTITIQGSARFG [CATH2]”: in test [1], the “Antibacterial activity over the tested concentrations” value is on record as “very strong antibacterial activity at all concentration”; the “Bacteria killed at 0.5 μM” value is recorded as 50%; the “Efficiency in reducing E. coli cell viability and damaging cell membranes (comparison among the CATHs)” value is “highest efficiency”. Further, in the test with E. coli, the “E. coli membrane damage (red fluorescence, LIVE/DEAD BacLight)” value is “greater with CATH2 or CATH3 than with CATH1 or CATHB1”.

Consider “PDSCNHDRGLCRVGNCNPGEYLAKYCFEPVILLCCKPLSPTPTKT [AvBD12, synthetic linear peptide corresponding to chicken avian β-defensin 12]”, for which, in test [1], the “Antibacterial (lytic) activity against E.coli at 5 μM” value (“Antibacterial (lytic) activity” below) was “very weak lytic activity” and the “Killing activity among tested HDPs at less than 5 μM” value (“Killing activity among tested HDPs” below) is reported as “minimal killing activity”.

On to PVRVKRFWPLVPVAINTVAAGINLYKAIRRK [CATH3], for which, in test [1], the “Antibacterial activity over the tested concentrations” value was “very strong antibacterial activity at all concentration”; the “Bacteria killed at 0.5 μM” value is recorded as 50%; the “Efficiency in reducing E. coli cell viability and damaging cell membranes (comparison among the CATHs)” value is “highest efficiency”. Besides, in the test on E. coli, the “E. coli membrane damage (red fluorescence, LIVE/DEAD BacLight)” value was “greater with CATH2 or CATH3 than with CATH1 or CATHB1”.

Regarding `CC[C@H](C)[C@H](NC(=O)[C@H](C)NC(=O)[C@H](CC(=O)O)NC(=O)[C@H](CCC(=O)O)NC(=O)[C@H](CC(=O)O)NC(=O)[C@@H]1CCCN1)C(=O)N[C@@H](CC(N)=O)C(=O)N[C@@H](CC(N)=O)C(=O)N[C@@H](C)C(=O)N[C@@H](CC(C)C)C(=O)N[C@@H](CC(N)=O)C(=O)N[C@@H](CCCCN)C(=O)N[C@H](C(=O)N[C@@H](CS)C(=O)N[C@@H](CO)C(=O)N[C@H](C(=O)NCC(=O)N[C@@H](CCCNC(=N)N)C(=O)N[C@@H](CCCNC(=N)N)C(=O)N[C@@H](CCC(N)=O)C(=O)N[C@@H](CCCNC(=N)N)C(=O)N[C@@H](CO)C(=O)N[C@H](C(=O)N[C@@H](CS)C(=O)N[C@@H](CCCCN)C(=O)N[C@@H](CCC(N)=O)C(=O)N[C@@H](CC(C)C)C(=O)N[C@@H](CC(C)C)C(=O)N[C@@H](CCCCN)C(=O)N[C@@H](CCCCN)C(=O)O)[C@@H](C)CC)[C@@H](C)O)C(C)C` [cNK3] (H-PDEDAINNALNKVCSTGRRQRSICKQLLKK-OH; N-terminus and C-terminus assumed), in test [1], the “Antibacterial activity over the tested concentrations” value is reported as “very strong antibacterial activity at all concentration” and the “Bacteria killed at 0.5 μM” value is reported as 50%.

With “GLPQDCERRGGFCSHKSCPPGIGRIGLCSKEDFCCRS [AvBD5, synthetic linear peptide corresponding to chicken avian β-defensin 5]”, in test [1], the “Antibacterial (lytic) activity” value is reported as “very weak lytic activity” and the “Killing activity among tested HDPs” value is “minimal killing activity”.

Consider “NNEAQCEQAGGICSKDHCFHLHTRAFGHCQRGVPCCRTVYD [AvBD8, synthetic linear peptide corresponding to chicken avian β-defensin 8]”, for which, in test [1], the “Antibacterial (lytic) activity” value is “very weak lytic activity” and the “Killing activity among tested HDPs” value is “minimal killing activity”. For the same molecule, the “Lethal dose (LD)50 against E.coli” value with E.coli is 27 µM.

On to “PDTVACRTQGNFCRAGACPPTFTISGQCHGGLLNCCAKIPAQ [AvBD10, synthetic linear peptide corresponding to chicken avian β-defensin 10]”, for which, in test [1], the “Antibacterial (lytic) activity” value is recorded as “very weak lytic activity” and the “Killing activity among tested HDPs” value is “minimal killing activity”.

In the case of `CC[C@H](C)[C@H](NC(=O)CNC(=O)[C@H](CC(N)=O)NC(=O)[C@H](CC(N)=O)NC(=O)[C@H](CS)NC(=O)[C@@H](NC(=O)CNC(=O)[C@@H](NC(=O)[C@H](Cc1c[nH]c2ccccc12)NC(=O)[C@H](Cc1ccc(O)cc1)NC(=O)[C@H](Cc1ccc(O)cc1)NC(=O)[C@@H]1CCCN1C(=O)[C@H](CCCNC(=N)N)NC(=O)[C@H](CCCNC(=N)N)NC(=O)[C@H](CS)NC(=O)[C@@H](NC(=O)CNC(=O)[C@@H]1CCCN1C(=O)[C@H](Cc1ccccc1)NC(=O)[C@H](CS)NC(=O)[C@H](CC(C)C)NC(=O)CNC(=O)[C@H](CC(N)=O)NC(=O)[C@H](CCCNC(=N)N)NC(=O)[C@H](CC(C)C)NC(=O)[C@H](CCCNC(=N)N)NC(=O)[C@H](CS)NC(=O)[C@@H](NC(=O)[C@H](CC(=O)O)NC(=O)[C@@H](NC(=O)[C@@H]1CCCN1C(=O)[C@@H](N)CCCNC(=N)N)[C@@H](C)CC)[C@@H](C)O)[C@@H](C)CC)[C@@H](C)CC)[C@@H](C)O)C(=O)NCC(=O)N[C@@H](CO)C(=O)N[C@@H](CS)C(=O)N[C@@H](CS)C(=O)N[C@@H](C)C(=O)N[C@@H](CCCNC(=N)N)C(=O)O` [AvBD7] (H-RPIDTCRLRNGLCFPGICRRPYYWIGTCNNGIGSCCAR-OH; N-terminus and C-terminus assumed), the “Antibacterial activity over the tested concentrations” value in test [1] is reported as “very strong antibacterial activity at all concentration”.

Values taken from publication PMC5064907, “Tissue expression and antibacterial activity of host defense peptides in chicken” (BMC Veterinary Research, 2016).
